Values after ≈ are worked out from the molar mass of the structure shown.

For orientation: log P means a log measure of how a compound divides between an organic and an aqueous phase. As a reminder, the pKa is the pH at which an ionisable group is half protonated. As usually defined, the solubility is how much of the substance goes into solution per volume. A higher solubility goes with a readily soluble substance.

For data set [1] the following is noted: cited from earlier work.
For data set [2] the following is noted: in vivo; cited from earlier work.
The conditions of data set [3]: Meng, et al.; cited from earlier work.
For data set [4] the following is noted: cited from earlier work. The source holds these as a separate data set.
The conditions of data set [5]: cited from earlier work. The source holds these as a separate data set.
The nature of data set [6]: Particle size, zeta potential and polydispersity index by dynamic light scattering. It is filed as physicochemical. On the procedure:
Fresh NPs were re-suspended by sonication (Qsonica LLC, Newtown, Conn., USA) in deionized water, or SA coated NPs were dissolved in deionized water and the particle size, the zeta potential, and polydispersity index (PDI) was measured through dynamic light scattering (Zetasizer Nano ZS, Malvern Instruments Ltd, Worcestershire, UK) at 25° C. Samples with polydispersity index (PDI)<0.05 were considered monodispersed according to the National Institute guidelines (7).

A short description of the next data set: physchem. The settings on record: pH 7, aqueous buffer, thermodynamic from solid.

Protocol for physchem: Sodium hydroxide was added raising the pH of the solution to 12.30. […] After the period of about 24 hours elapsed, the solution was freeze dried. The amount of DXT that dissolved into solution from each DXT composition was measured by determining the amount of DXT in the supernatant, as measured by UV spectroscopy at 230 nm after removing undissolved material by centrifugation. […] Native DXT (uncoated) dissolved into acetate buffer at the same pH was used as a control.

Regarding `C[C@H](Cn1cnc2c(N)ncnc21)OCP(=O)(O)O` [TFV, tenofovir], the “log P” value in data set [1] was −1.1. The Oral bioavailability in data set [2] was 25-39%. The “TFV encapsulated in chitosan NPs (EE %)” value in data set [3] is on record as 5.83%. The Solubility in water in data set [4] is 13400 µg/mL (≈ 46700 µM).

`O=P(O)(O)OP(=O)(O)OP(=O)(O)O` [Triphosphoric acid]: the “pKa (fifth listed)” value in data set [5] (fifth dissociation, printed pKa) was 8.5. Further, the pKa1 in data set [5] (first dissociation) is on record as 1. In addition, the pKa4 in data set [5] (fourth dissociation) is recorded as 3.7. Besides, the “pKa (second listed)” value in data set [5] (second dissociation, printed pKa) is recorded as 2.2. Besides, in data set [5] (third dissociation), the pKa3 is recorded as 2.3.

With `CC(=O)[O-].[Na+]` [pure salt, sodium acetate], the ZP in data set [6] (as worded) was 0-3 mV. In addition, in data set [6] (pure salt), the “Zeta potential of pure salt (ev)” value was −4.87 ± 0.64 ev.

Regarding `CC(=O)O[C@@]12CO[C@@H]1C[C@H](O)[C@@]1(C)C(=O)[C@H](O)C3=C(C)[C@@H](OC(=O)[C@H](O)[C@@H](NC(=O)OC(C)(C)C)c4ccccc4)C[C@@](O)([C@@H](OC(=O)c4ccccc4)[C@H]21)C3(C)C` [uncoated DXT, Docetaxel, reference compound], the pKa in data set [5] was ~10.96. Besides, in “physchem”, the solubility was ~11.8 µg/mL (≈ 14.6 µM).

Source of the values: patent US10213447B2, “Preparation of acetate salt compositions of pharmaceutical agents” (The Curators of the University of Missouri, priority 2015, dated 2019).
